Data published in ChEMBL document CHEMBL1147289, “A new bioactive derivative of avarol from the marine sponge Dysidea avara” (J Nat Prod, 1989).

Experiments:
Artemia = experiment: Toxicity in brine shrimp; format: organism-based; conditions: in vivo
[1] = test system: Agrobacterium tumefaciens; experiment: Antitumor activity against Agrobacterium tumefaciens-induced crown gall tumors in potato tubers by potato disk assay; format: functional

SMILES | LC50 (Artemia) [ppm] | inhibition (INH) [1] [%]
CC1=CCC[C@H]2[C@](C)(Cc3cc(O)ccc3O)[C@@H](C)CC[C@]12C [AVAROL] | 0.18 | 64
CC(=O)O.CC1=CCCC2[C@](C)(Cc3cc(O)ccc3O)[C@@H](C)CC[C@]12C (stereo partly specified) [AVAROL MONOACETATE] | 0.09 | 59
CC1=CCC[C@H]2[C@](C)(CC3=CC(=O)C=CC3=O)[C@@H](C)CC[C@]12C [AVARONE] | 0.14 | 63
